Patent publication US7964624B1, “Inhibitors of serine proteases” (priority 2005, dated 2011)

Tests used:
[1] = molecular target: T1, full-length hepatitis C viral protein NS3•4A (Hepatitis C virus genotype 1a, UniProt P27958); experiment: biochemical; design: species or system HCV sub-type strain 1a
T1 construct: hexa-histidine (N); made in house; host or cells: Sf9 insect cells (baculovirus, pVL1392)

HCV NS3 protease domain = molecular target: T2, HCV NS3 protease domain (Hepatitis C virus genotype 1b, UniProt Q9WMX2); experiment: biochemical; conditions: Enzyme Assay 1 (HCV NS3 Protease Domain Peptide Cleavage Assay) activity, apparent Ki class
T2 construct: The first 181 amino acids of NS3 (residues 1027-1207 of the viral polyprotein); hexa-histidine (C); made in house; host or cells: E. coli BL21/DE3 pLysS

[2] = Enzyme Assay 2 (HCV NS3 Peptide Cleavage Assay) activity, apparent Ki class
[3] = Enzyme Assay 2, HCV NS3 Peptide Cleavage Assay, apparent Ki

## CCC[C@H](NC(=O)[C@@H]1C[C@]2(CC(c3ccc(C)c(Cl)c3)=NO2)CN1C(=O)[C@@H](NC(=O)CC1CCCCC1)C(C)(C)C)C(=O)C(=O)NC1CC1 [Compound 3]
[1]; [2]
  Ki: < 0.1 µM
HCV NS3 protease domain
  Ki: 0.1 to 0.5 µM

## CC1(O)CCC(CC(=O)N[C@H](C(=O)N2C[C@@]3(CC(c4cccc(Cl)c4)=NO3)C[C@H]2C(=O)N[C@@H](CC2CC2)C(=O)C(N)=O)C(C)(C)C)CC1 (stereo partly shown) [Compound 5]
[1]; [2]
  Ki: < 0.1 µM
HCV NS3 protease domain
  Ki: < 0.1 µM

## CCC[C@H](NC(=O)[C@@H]1C[C@]2(CC(c3cccc(Cl)c3)=NO2)CN1C(=O)[C@@H](NC(=O)CC1CCCCC1)C(C)(C)C)C(=O)C(=O)NC1Cc2ccccc2C1 [Compound 6]
[1]; [2]
  Ki: > 0.5 µM
HCV NS3 protease domain
  Ki: > 0.5 µM

## CCC[C@H](NC(=O)[C@@H]1C[C@]2(CC(c3cccc(Cl)c3)=NO2)CN1C(=O)[C@@H](CC(=O)NCc1ccccc1)C(C)C)C(=O)C(=O)NC1CC1 [Compound 10]
[1]; [2]
  Ki: > 0.5 µM
HCV NS3 protease domain
  Ki: > 0.5 µM

## CCC[C@H](NC(=O)[C@@H]1C[C@]2(CC(c3cccc(Cl)c3)=NO2)CN1C(=O)[C@@H](NC(C)=O)C(C)(C)C)C(=O)C(=O)NC1CC1 [Compound 12]
[1]; [2]
  Ki: < 0.1 µM
HCV NS3 protease domain
  Ki: 0.1 to 0.5 µM

## CC(C)(C)[C@H](NC(=O)CC1CC2CCC1C2)C(=O)N1C[C@@]2(CC(c3cccc(Cl)c3)=NO2)C[C@H]1C(=O)N[C@@H](CC1CC1)C(=O)C(N)=O (stereo partly shown) [Compound 13]
[1]; [2]
  Ki: < 0.1 µM
HCV NS3 protease domain
  Ki: < 0.1 µM

## CCC[C@H](NC(=O)[C@@H]1C[C@]2(CC(c3cccc(Cl)c3)=NO2)CN1C(=O)[C@@H](NC(=O)CC1CCCCC1)C(C)(C)C)C(=O)C(=O)NCc1nc2ccccc2s1 [Compound 17]
[1]; [2]
  Ki: 0.1 to 0.5 µM
HCV NS3 protease domain
  Ki: > 0.5 µM

## CC(C)(C)[C@H](NC(=O)CC1CCCCC1)C(=O)N1C[C@@]2(CC(c3cc(Cl)c4c(c3)CCO4)=NO2)C[C@H]1C(=O)NC(CC1CCC1)C(=O)C(=O)NC1CC1 (stereo partly shown) [Compound 18]
[1]; [2]
  Ki: < 0.1 µM
HCV NS3 protease domain
  Ki: < 0.1 µM

## CCC[C@H](NC(=O)[C@@H]1C[C@]2(CC(c3cccc(Cl)c3)=NO2)CN1C(=O)[C@@H](NC(=O)CC12CCCCC1C2)C(C)(C)C)C(=O)C(=O)NC1CC1 (stereo partly shown) [Compound 19]
[1]; [2]
  Ki: < 0.1 µM
HCV NS3 protease domain
  Ki: 0.1 to 0.5 µM

## CCC[C@H](NC(=O)[C@@H]1C[C@]2(CC(c3cccc(Cl)c3)=NO2)CN1C(=O)[C@@H](CC(=O)NC1CCCCC1)C(C)C)C(=O)C(=O)NC1CC1 [Compound 21]
[1]; [2]
  Ki: > 0.5 µM
HCV NS3 protease domain
  Ki: > 0.5 µM

## CC(C)(C)[C@H](NC(=O)CC1CCCCC1)C(=O)N1C[C@@]2(CC(c3cccc(Cl)c3)=NO2)C[C@H]1C(=O)N[C@@H](CC1CCC1)C(=O)C(=O)NC1CC1 [Compound 23]
[1]; [2]
  Ki: 0.1 to 0.5 µM
HCV NS3 protease domain
  Ki: < 0.1 µM

## CCC[C@H](NC(=O)[C@@H]1C[C@]2(CC(c3cccc(Cl)c3)=NO2)CN1C(=O)[C@@H](NC(=O)[C@@H]1CCCN1C(=O)c1ccccc1)C(C)(C)C)C(=O)C(=O)NC1CC1 [Compound 26]
[1]; [2]
  Ki: < 0.1 µM
HCV NS3 protease domain
  Ki: 0.1 to 0.5 µM

## CCC[C@H](NC(=O)[C@@H]1C[C@]2(CC(c3ccccc3C#N)=NO2)CN1C(=O)[C@@H](NC(=O)CC1CCCCC1)C(C)(C)C)C(=O)C(=O)NC1CC1 [Compound 28]
[1]; [2]
  Ki: 0.1 to 0.5 µM
HCV NS3 protease domain
  Ki: > 0.5 µM

## CCC[C@H](NC(=O)[C@@H]1C[C@]2(CC(c3cccc(Cl)c3)=NO2)CN1C(=O)[C@@H](NC(=O)CC1(C)CCCCC1)C(C)(C)C)C(=O)C(=O)NC1CC1 [Compound 29]
[1]; [2]
  Ki: 0.1 to 0.5 µM
HCV NS3 protease domain
  Ki: 0.1 to 0.5 µM

## CCC[C@H](NC(=O)[C@@H]1C[C@]2(CC(c3cccc(Cl)c3)=NO2)CN1C(=O)[C@@H](NC(=O)[C@@H]1CCC(=O)N1Cc1cccs1)C(C)(C)C)C(=O)C(=O)NC1CC1 [Compound 30]
[1]; [2]
  Ki: < 0.1 µM
HCV NS3 protease domain
  Ki: 0.1 to 0.5 µM

## CCC[C@H](NC(=O)[C@@H]1C[C@]2(CC(c3cccc4cccnc34)=NO2)CN1C(=O)[C@@H](NC(=O)CC1CCCCC1)C(C)(C)C)C(=O)C(=O)NC1CC1 [Compound 42]
[1]; [2]
  Ki: < 0.1 µM
HCV NS3 protease domain
  Ki: 0.1 to 0.5 µM

## C=C[C@@H]1C[C@]1(NC(=O)[C@@H]1C[C@]2(CC(c3cccc(Cl)c3)=NO2)CN1C(=O)[C@@H](NC(=O)OC1CCOC1)C(C)(C)C)C(=O)NS(=O)(=O)C1CC1 (stereo partly shown) [Compound 45]
[1]; [2]
  Ki: 0.1 to 0.5 µM
HCV NS3 protease domain
  Ki: > 0.5 µM

## CCC[C@H](NC(=O)[C@@H]1C[C@]2(CC(c3cccc(Cl)c3)=NO2)CN1C(=O)c1cc2cc(Br)ccc2[nH]1)C(=O)C(=O)NC1CC1 [Compound 46]
[1]; [2]
  Ki: > 0.5 µM
HCV NS3 protease domain
  Ki: > 0.5 µM

## CCC[C@H](NC(=O)[C@@H]1CC2(CC(c3cccc(Cl)c3)=NO2)CN1C(=O)[C@H](CCSCC)NC(C)=O)C(=O)C(=O)NC1CC1 (stereo partly shown) [Compound 54]
[1]; [2]
  Ki: 0.1 to 0.5 µM
HCV NS3 protease domain
  Ki: > 0.5 µM

## CNC(=O)C(=O)[C@H](CC1CC1)NC(=O)[C@@H]1C[C@]2(CC(c3cccc(Cl)c3)=NO2)CN1C(=O)[C@@H](NC(=O)C1(c2ccccc2)CC1)C(C)(C)C [Compound 966]
[1]; [3]
  Ki: > 0.5 µM

## [2H][C@@](CCC)(NC(=O)[C@@H]1C[C@]2(CC(c3cc(C)c(OC)c(C)c3)=NO2)CN1C(=O)[C@@H](NC(=O)CC1CCCCC1)C(C)(C)C)C(=O)C(=O)NC1CC1 [Compound 967]
[1]; [3]
  Ki: < 0.1 µM

## CCC[C@H](NC(=O)[C@@H]1C[C@]2(CC(c3cc(Cl)ccc3OC)=NO2)CN1C(=O)[C@@H](NC(=O)[C@@H]1C[C@H]1c1ccccc1)C(C)(C)C)C(=O)C(=O)NC1CC1 [Compound 968]
[1]; [3]
  Ki: < 0.1 µM

## CCC[C@H](NC(=O)[C@@H]1C[C@]2(CC(c3cc(Cl)ccc3OC)=NO2)CN1C(=O)[C@@H](NC(=O)[C@@H]1C[C@H]1c1ccccc1)C(C)(C)C)C(=O)C(=O)NC [Compound 969]
[1]; [3]
  Ki: < 0.1 µM

## CCNC(=O)C(=O)[C@H](CC1CC1)NC(=O)[C@@H]1C[C@]2(CC(c3cc(Cl)ccc3OC)=NO2)CN1C(=O)[C@@H](NC(=O)[C@@H]1C[C@H]1c1ccccc1)C(C)(C)C [Compound 970]
[1]; [3]
  Ki: < 0.1 µM

## CCOc1cc(OC)c(C2=NO[C@]3(C2)C[C@@H](C(=O)N[C@@H](CC2CC2)C(=O)C(N)=O)N(C(=O)[C@@H](NC(=O)OC(C)(C)C)C(C)(C)C)C3)cc1Cl [Compound 971]
[1]; [3]
  Ki: < 0.1 µM

## CCOc1cc(OC)c(C2=NO[C@]3(C2)C[C@@H](C(=O)N[C@@H](CC2CC2)C(=O)C(N)=O)N(C(=O)[C@@H](NC(=O)CC2CCCCC2)C(C)(C)C)C3)cc1Cl [Compound 972]
[1]; [3]
  Ki: < 0.1 µM

## CCOc1c(C)cc(C2=NO[C@]3(C2)C[C@@H](C(=O)N[C@@H](CC2CC2)C(=O)C(N)=O)N(C(=O)[C@@H](NC(=O)OC(C)(C)C)C(C)(C)C)C3)cc1C [Compound 974]
[1]; [3]
  Ki: < 0.1 µM

## CCOc1c(C)cc(C2=NO[C@]3(C2)C[C@@H](C(=O)N[C@@H](CC2CC2)C(=O)C(N)=O)N(C(=O)[C@@H](NC(=O)CC2CCCCC2)C(C)(C)C)C3)cc1C [Compound 975]
[1]; [3]
  Ki: < 0.1 µM

## CCC[C@H](NC(=O)[C@@H]1C[C@]2(CC(c3cc(C)c(OCC)c(C)c3)=NO2)CN1C(=O)[C@@H](NC(=O)[C@H]1C[C@@H]1c1ccccn1)C(C)(C)C)C(=O)C(=O)NC1CC1 [Compound 980]
[1]; [3]
  Ki: 0.1 to 0.5 µM

## CCC[C@H](NC(=O)[C@@H]1C[C@]2(CC(c3cc(C)c(OCC)c(C)c3)=NO2)CN1C(=O)[C@@H](NC(=O)[C@@H]1C[C@H]1c1ccccn1)C(C)(C)C)C(=O)C(=O)NC1CC1 [Compound 981]
[1]; [3]
  Ki: < 0.1 µM

## CCC[C@H](NC(=O)[C@@H]1C[C@]2(CC(c3cc(C)c(OCC)c(C)c3)=NO2)CN1C(=O)[C@@H](NC(=O)C1CC1c1ccncc1)C(C)(C)C)C(=O)C(=O)NC1CC1 (stereo partly shown) [Compound 982]
[1]; [3]
  Ki: 0.1 to 0.5 µM

## CCC[C@H](NC(=O)[C@@H]1C[C@]2(CC(c3cc(C)c(OCC)c(C)c3)=NO2)CN1C(=O)[C@@H](NC(=O)[C@@H]1C[C@H]1C(C)C)C(C)(C)C)C(=O)C(=O)NC1CC1 [Compound 983]
[1]; [3]
  Ki: < 0.1 µM

## CCC[C@H](NC(=O)[C@@H]1C[C@]2(CC(c3cc(C)c(OCC)c(C)c3)=NO2)CN1C(=O)[C@@H](NC(=O)[C@@H]1C[C@H]1C1CCCCC1)C(C)(C)C)C(=O)C(=O)NC1CC1 [Compound 984]
[1]; [3]
  Ki: < 0.1 µM

## CCOc1c(C)cc(C2=NO[C@]3(C2)C[C@@H](C(=O)N[C@@H](CC2CC2)C(=O)C(=O)NC)N(C(=O)[C@@H](NC(=O)[C@@H]2C[C@H]2c2ccccc2OC)C(C)(C)C)C3)cc1C [Compound 985]
[1]; [3]
  Ki: < 0.1 µM

## CCOc1c(C)cc(C2=NO[C@]3(C2)C[C@@H](C(=O)N[C@@H](CC2CC2)C(=O)C(=O)NC)N(C(=O)[C@@H](NC(=O)[C@H]2C[C@@H]2c2ccccn2)C(C)(C)C)C3)cc1C [Compound 986]
[1]; [3]
  Ki: 0.1 to 0.5 µM

## CCC[C@H](NC(=O)[C@@H]1C[C@]2(CC(c3cc(C)c(OCC)c(C)c3)=NO2)CN1C(=O)[C@@H](NC(=O)[C@@H]1C[C@H]1c1ccccc1OC)C(C)(C)C)C(=O)C(=O)NC [Compound 991]
[1]; [3]
  Ki: < 0.1 µM

## CCC[C@H](NC(=O)[C@@H]1C[C@]2(CC(c3cc(C)c(OCC)c(C)c3)=NO2)CN1C(=O)[C@@H](NC(=O)C1C[C@H]1C(C)C)C(C)(C)C)C(=O)C(=O)NC (stereo partly shown) [Compound 992]
[1]; [3]
  Ki: < 0.1 µM

## CCC[C@H](NC(=O)[C@@H]1C[C@]2(CC(c3cc(C)c(OCC)c(C)c3)=NO2)CN1C(=O)[C@@H](NC(=O)[C@@H]1C[C@H]1C1CCCCC1)C(C)(C)C)C(=O)C(=O)NC [Compound 993]
[1]; [3]
  Ki: < 0.1 µM

## CCC[C@H](NC(=O)[C@@H]1C[C@]2(CC(c3cc(C)c(OCC)c(C)c3)=NO2)CN1C(=O)[C@@H](NC(=O)[C@@H]1C[C@H]1c1ccc(F)cc1)C(C)(C)C)C(=O)C(=O)NC1CC1 [Compound 994]
[1]; [3]
  Ki: < 0.1 µM

## CCC[C@H](NC(=O)[C@@H]1C[C@]2(CC(c3cc(C)c(OCC)c(C)c3)=NO2)CN1C(=O)[C@@H](NC(=O)[C@@H]1C[C@H]1c1ccc(F)cc1)C(C)(C)C)C(=O)C(=O)NC [Compound 995]
[1]; [3]
  Ki: < 0.1 µM

## CCC[C@H](NC(=O)[C@@H]1C[C@]2(CC(c3cc(C)c(OCC)c(C)c3)=NO2)CN1C(=O)[C@@H](NC(=O)[C@H]1C[C@@H]1c1ccc(F)cc1)C(C)(C)C)C(=O)C(=O)NC1CC1 [Compound 996]
[1]; [3]
  Ki: < 0.1 µM

## CCC[C@H](NC(=O)[C@@H]1C[C@]2(CC(c3cc(C)c(OCC)c(C)c3)=NO2)CN1C(=O)[C@@H](NC(=O)[C@H]1C[C@@H]1c1ccc(F)cc1)C(C)(C)C)C(=O)C(=O)NC [Compound 997]
[1]; [3]
  Ki: < 0.1 µM
